Experimental data as given in PMC9446893, “Zinc(II) Complex with Pyrazolone-Based Hydrazones is Strongly Effective against Trypanosoma brucei Which Causes African Sleeping Sickness” (Inorganic Chemistry, 2022).

Experiments:
[1] = system: T. brucei TC221; assay: Viability of T. brucei TC221 bloodstream forms (resazurin fluorescence); assay type: cell-based, Trypanosoma brucei
Protocol: (§1) The biological assays have been conducted in collaboration with Prof. Anders Hofer, Department of Medical Biochemistry and Biophysics, Umeå University, Umeå, Sweden. T. bruceiTC221 bloodstream forms and mouse embryonic fibroblast Balb/3T3 cells (ATCC no CCL-163) were cultivated in a vented plastic flask at 37 °C with 5% CO2. For T. brucei, the growth medium was Hirumi’s modified Iscoves medium (HMI)-9 supplemented with 10% (v/v) fetal bovine serum (Thermo Fischer Scientific Gibco, Waltham, MA, USA), whereas the Balb/3T3 cells were grown in Dulbecco’s modified Eagle’s medium (Sigma-Aldrich) supplemented with 10% (v/v) heat-inactivated fetal bovine serum, glutamine (0.584 g/L), and 10 mL/L 100 × penicillin–streptomycin (Gibco).[48]−[50] […] The plates were incubated for 48 h in the 5%CO2 incubator; then, 20 μL of 0.5 mM resazurine (Sigma-Aldrich) was added to each well, and the plates were incubated for an additional 24 h before the fluorescence was measured with the Synergy H4 microplate reader (excitation wavelength 530 or 540 nm and emission wavelength 590 nm).
(§2) The half-maximal efficacious concentration (EC50) values were calculated on the log inhibitor versus the response curves by non-linear regression using the GraphPad prism 5.2 software (GraphPad Software, Inc., La Jolla, CA, USA). […]

[2] = system: Balb/3T3 cells; assay: Cytotoxicity on Balb/3T3 mammalian reference cells (resazurin fluorescence); assay type: cell-based; conditions: mouse embryonic fibroblasts, 48 h + 24 h with resazurin
Protocol: as §1, §2

Q: With Cc1ccc(C(=O)Nc2ccc(S(=O)(=O)O)c3cc(S(=O)(=O)O)cc(S(=O)(=O)O)c23)cc1NC(=O)c1cccc(NC(=O)Nc2cccc(C(=O)Nc3cc(C(=O)Nc4ccc(S(=O)(=O)O)c5cc(S(=O)(=O)O)cc(S(=O)(=O)O)c45)ccc3C)c2)c1 [suramin, reference compound] as the molecule, how does the “SI (selectivity index)” value ([1]; T. brucei versus Balb/3T3 reference cells) read?
A: Its value is greater than 100.

Q: And the EC50 ([1]; Trypanosoma brucei, bloodstream forms, 48 h + 24 h with resazurin)?
A: The EC50 was 23 ± 0.8 nM.

Q: What about the EC50 [2] of the same molecule?
A: The EC50 was 43.9 ± 1.44 µM.
